Here are results for ten compounds from patent US5807986A, “Methods of making and screening betide libraries” (The Salk Institute For Biological Studies, priority 1995, dated 1998).

In general, IC50 refers to the point on the concentration scale where inhibition reaches its midpoint. Higher therefore signals lower potency.

Where “and” joins values, the source holds several entries; their conditions need not be identical. Identical values can stand only once. Where a SMILES comes first, the peptide text is derived from it. [ ]: non-standard residue; d: D form. dPhe(4-NH2) = Nc1ccc(C[C@@H](N)C(=O)O)cc1; dPhe(4-Cl) = N[C@H](Cc1ccc(Cl)cc1)C(=O)O; Phe(4-NH2) = Nc1ccc(C[C@H](N)C(=O)O)cc1; d2Nal = N[C@H](Cc1ccc2ccccc2c1)C(=O)O; Lys(iPr) = CC(C)NCCCC[C@H](N)C(=O)O; d3Pal = N[C@H](Cc1cccnc1)C(=O)O

Data set [1] can be described thus: examination of rats for tolerance and gelling at the point of injection. In kind it is in vivo. Particulars: rats of the anti-ovulation test, injected in bacteriostatic water. How it is done: (§1) The betide is assayed in vivo to determine its effectiveness to prevent ovulation in female rats. In this test, a specified number of mature female Sprague-Dawley rats, e.g. five to ten, each having a body weight from 225 to 250 grams, are injected with a specified microgram dosage of the betide in bacteriostatic water at about noon on the day of proestrus. Proestrus is the […] of ovulation. A separate female rat group is used as a control to which the peptide is not administered. Each of the control female rats ovulates on the evening of proestrus; the number of the rats treated which ovulate is recorded. […] At a dosage of 1.0 microgram for isomer (1), all ovulate while for 1 μg of isomer (2), only 6 out of 14 rats ovulate and for 0.5 μg, 3 out of 4 rats ovulate. Isomer (2) is hereinafter referred to as Betide No. 1.

The nature of data set [2]: hydrophilicity by retention on RP-HPLC. Type of data set: physicochemical.
For the next data set, the target named is T1, mSSTR1 (Mus musculus, UniProt P30873).
T1 construct: expressed in transfected cells; host or cells: COS and CHO cells
T1 sequence (P30873 whole entry): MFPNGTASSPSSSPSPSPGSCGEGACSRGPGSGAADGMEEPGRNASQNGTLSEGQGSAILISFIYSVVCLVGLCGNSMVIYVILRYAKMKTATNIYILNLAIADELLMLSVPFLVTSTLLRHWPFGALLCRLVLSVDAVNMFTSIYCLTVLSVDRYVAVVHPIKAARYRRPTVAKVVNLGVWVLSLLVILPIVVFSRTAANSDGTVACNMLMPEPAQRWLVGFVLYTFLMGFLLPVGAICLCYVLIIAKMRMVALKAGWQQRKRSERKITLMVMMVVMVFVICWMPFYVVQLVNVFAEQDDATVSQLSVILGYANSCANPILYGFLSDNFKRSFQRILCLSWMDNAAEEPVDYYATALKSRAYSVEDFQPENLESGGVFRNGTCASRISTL
Briefly: inhibition of radioligand binding to cloned SRIF receptor mSSTR1. Particulars: cloned mouse receptor expressed on COS and CHO cells. How it is done: (§2) In vitro Bioassay: The effects of the various somatostatin analogs are tested in vitro for their ability to bind to isolated cloned receptors expressed on COS and CHO cells.
(§3) Five such receptor subtypes termed SSTR1 through SSTR5, have been cloned and are reported and described in Raynor et al., Molecular Pharmacology, 43, 838-844 (1993) and in Raynor et al., Molecular Pharmacology, 44, 385-392 (1993).

In another data set the target is T2, mSSTR2 (Mus musculus, UniProt P30875).
T2 construct: expressed in transfected cells; host or cells: COS and CHO cells
T2 sequence (P30875 whole entry): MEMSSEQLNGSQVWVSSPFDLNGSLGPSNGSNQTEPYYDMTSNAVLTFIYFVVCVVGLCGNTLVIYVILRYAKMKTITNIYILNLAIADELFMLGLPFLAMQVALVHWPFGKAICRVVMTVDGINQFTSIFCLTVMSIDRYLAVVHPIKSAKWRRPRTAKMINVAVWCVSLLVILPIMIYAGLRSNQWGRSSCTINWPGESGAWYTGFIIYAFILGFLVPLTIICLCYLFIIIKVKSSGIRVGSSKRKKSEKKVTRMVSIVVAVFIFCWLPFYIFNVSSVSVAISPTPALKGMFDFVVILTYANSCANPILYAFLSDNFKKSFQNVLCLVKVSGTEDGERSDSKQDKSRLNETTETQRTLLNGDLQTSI
Put plainly: inhibition of radioligand binding to cloned SRIF receptor mSSTR2. The following applies: cloned mouse receptor expressed on COS and CHO cells. How it is done: as §2, §3

The target of the next data set is T3, mSSTR3 (Mus musculus, UniProt P30935).
T3 construct: expressed in transfected cells; host or cells: COS and CHO cells
T3 sequence (P30935 whole entry): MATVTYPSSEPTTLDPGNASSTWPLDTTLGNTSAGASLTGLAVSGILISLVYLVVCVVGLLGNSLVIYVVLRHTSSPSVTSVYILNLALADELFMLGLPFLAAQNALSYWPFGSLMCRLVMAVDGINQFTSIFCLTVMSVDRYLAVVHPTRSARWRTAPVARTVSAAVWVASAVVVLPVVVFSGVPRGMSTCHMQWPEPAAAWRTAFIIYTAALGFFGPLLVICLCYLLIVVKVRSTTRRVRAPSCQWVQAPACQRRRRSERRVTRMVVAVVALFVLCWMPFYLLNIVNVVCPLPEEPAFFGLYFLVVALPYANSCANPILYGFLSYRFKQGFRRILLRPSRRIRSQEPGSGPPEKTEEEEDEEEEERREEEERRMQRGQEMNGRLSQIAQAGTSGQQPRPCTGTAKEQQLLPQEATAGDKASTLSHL
Briefly: inhibition of radioligand binding to cloned SRIF receptor mSSTR3. The following applies: cloned mouse receptor expressed on COS and CHO cells. The procedure: as §2, §3

In another data set the test system is ovulation in female rats. Briefly: standard in vivo rat anti-ovulation test. Particulars: injected at about noon on the day of proestrus. Also noted: species or system Sprague-Dawley rats. The procedure:
as §1

For the compound `CC(=O)Nc1ccc(C[C@H](NC(=O)[C@H](CO)NC(=O)C(NC(=O)c2cccnc2)NC(=O)[C@@H](Cc2ccc(Cl)cc2)NC(=O)[C@@H](Cc2ccc3ccccc3c2)NC(C)=O)C(=O)N[C@H](Cc2ccc(NC(C)=O)cc2)C(=O)N[C@@H](CC(C)C)C(=O)N[C@@H](CCCCNC(C)C)C(=O)N2CCC[C@H]2C(=O)N[C@H](C)C(N)=O)cc1` (single isomer, unassigned) [Betide No. 1, [Ac-β-D-2NAL^1, (4Cl)D-Phe^2, D/L Agl(nicotinoyl)^3, Aph(Ac)^5, D-Aph(Ac)^6, ILys^8, D-Ala^10]-GnRH], the “tolerance and gelling at the point of injection” value in data set [1] was “very well tolerated, with no significant gelling at the point of injection being detectable”.
Consider `CC(=O)Nc1ccc(C[C@H](NC(=O)[C@H](CO)NC(=O)[C@@H](Cc2cccnc2)NC(=O)[C@@H](Cc2ccc(Cl)cc2)NC(=O)[C@@H](Cc2ccc3ccccc3c2)NC(C)=O)C(=O)N[C@H](Cc2ccc(NC(C)=O)cc2)C(=O)N[C@@H](CC(C)C)C(=O)N[C@@H](CCCCNC(C)C)C(=O)N2CCC[C@H]2C(=O)N[C@H](C)C(N)=O)cc1` [Acyline, Ac-β-D-2NAL-(4Cl)D-Phe-D-3PAL-Ser-Aph(Ac)D-Aph(Ac)-Leu-ILys-Pro-D-Ala-NH2, reference compound] (Ac-[d2Nal][dPhe(4-Cl)][d3Pal]S[Phe(4-NH2)](Ac)[dPhe(4-NH2)](Ac)L[Lys(iPr)]P[dA]-NH2), for which, in data set [2] (gradient 40% to 75% Buffer B over 30 minutes, Buffer A TEAP pH 7.3, Buffer B 60% CH3CN and 40% Buffer A), the “retention using RP-HPLC (hydrophilicity)” value was 24.1 min.
`C[C@@H](O)[C@@H]1NC(=O)[C@H](CCCCN)NC(=O)C(NC(=O)c2ccc3ccccc3c2)NC(=O)[C@H](Cc2ccccc2)NC(=O)[C@H](Cc2ccccc2)NC(=O)[C@@H](N)CSSC[C@@H](C(=O)O)NC(=O)[C@H](Cc2ccccc2)NC1=O` (stereo partly drawn) [Betide No. 7, (cyclo 1-8)H-Cys-Phe-Phe-(2-naphthylamido)Gly-Lys-Thr-Phe-Cys-OH]: the concentration for half-maximal inhibition (IC50) on mSSTR1, on mSSTR2 and at mSSTR3 was above 1000 nM in each case.
As to `C[C@@H](O)[C@@H]1NC(=O)[C@H](CCCCN)NC(=O)C(N(C)C(=O)c2ccc3ccccc3c2)NC(=O)[C@H](Cc2ccccc2)NC(=O)[C@H](Cc2ccccc2)NC(=O)[C@@H](N)CSSC[C@@H](C(=O)O)NC(=O)[C@H](Cc2ccccc2)NC1=O` (stereo partly drawn) [Betide No. 7A, (cyclo 1-8)H-Cys-Phe-Phe-(β-methyl-γ-2-naphthyl)D/L(amido)Gly-Lys-Thr- Phe-Cys-OH], the IC50 was > 1000 nM and 600 nM on mSSTR1; above 1000 nM at mSSTR2.
With `C[C@@H](O)[C@@H]1NC(=O)C(NC(=O)CCN)NC(=O)[C@@H](Cc2c[nH]c3ccccc23)NC(=O)[C@H](Cc2ccccc2)NC(=O)[C@H](Cc2ccccc2)NC(=O)[C@@H](N)CSSC[C@@H](C(=O)O)NC(=O)[C@H](Cc2ccccc2)NC1=O` (stereo partly drawn) [Betide No. 8, (cyclo 1-8)H-Cys-Phe-Phe-D-Trp-γ-(2-aminoethyl)amido-glycine-Thr-Phe-Cys-OH], the IC50 at mSSTR1, at mSSTR2 and at mSSTR3 was above 1000 nM each time.
On to “Ac-β-D-2NAL-(4Cl)D-Phe-D-3PAL-Ser-(4-Acetyl-amino-benzyl)D/L-amidoGly-D-Aph(acetyl)-Leu-Lys(isopropyl)-Pro-D-Ala-NH2 [Betide No. 4]”, for which the “rats ovulating out of rats treated” value in the data set on ovulation in female rats (dosage 5 μg) is 2 out of 8.
Regarding “Ac-β-D-2NAL-(4Cl)D-Phe-D-3PAL-Ser-Aph(acetyl)-γ-(4-acetamidophenyl)D/L-amidoGly-Leu-Lys (isopropyl)-Pro-D-Ala-NH2 [Betide No. 5]”, the “rats ovulating out of rats treated” value in the data set on ovulation in female rats (dosage 2.5 μg) is reported as 2 out of 4; in the data set on ovulation in female rats (dosage 5 μg), 1 out of 8.
Turning to “Ac-β-D-2NAL-(4Cl)D-Phe-D-3PAL-Ser-γ-(4-hydroxyphenyl)D/L-amidoGly-D-Aph(acetyl)-Leu-Lys(isopropyl)-Pro-D-Ala-NH2 [Betide No. 4A]”, in the data set on ovulation in female rats (dosage 5 μg), the “rats ovulating out of rats treated” value was 2 out of 16.
In the case of “Ac-β-D-2NAL-(4Cl)D-Phe-D-(3-pyridyl)Ala-Ser-Aph(acetyl)-D-Aph(acetyl)-D/L-Agl(Acetyl)-Lys(isopropyl)-Pro-D-Ala-NH2 [Betide No. 2]”, the “rats ovulating out of rats treated” value with ovulation in female rats (dosage 5 μg) is on record as 5 out of 8; in the data set on ovulation in female rats (dosage 10 μg) it was 0 out of 8. For the same compound, in data set [2] (RP-HPLC), the “hydrophilicity compared to Acyline” value is “more hydrophilic than Acyline”.
In the case of “[Ac-βCH3 -D-2NAL^1, 4ClD-Phe^2, D-3PAL^3, Aph(atz)^5, D-Aph(atz)^6, ILys^8, D-Ala^10 ]-GnRH [E stereoisomer]”, the figures for the “rats ovulating out of rats treated” value in the data set with ovulation in female rats (dosage 1.0 μg) and with ovulation in female rats (dosage 2.5 μg) were “partially active” and “fully active”, respectively.
